Laboratory results: patent publication US7556807B2, “Signal peptides, nucleic acid molecules and methods for treatment of caries” (priority 2001, dated 2009)

Columns and labels:
[1] = system: S. mutans comD null mutant; experiment: Genetic transformation of S. mutans comD null mutant in presence of H1; format: cell-based, Streptococcus mutans; details: different concentrations of H1
Source text: An S. mutans UA159 comD null mutant was constructed by a PCR-based deletion strategy involving restriction-ligation and allelic replacement as described previously (Lau et al., 2002). The primers used to construct and confirm the S. mutans comD deletion mutant were P1-HK13 (5′-[…]-3′; SEQ ID NO:52), P2-HK13 (5′-[…]-3′; SEQ ID NO:53), P3-HK13 (5′-[…]-3′; SEQ ID NO:54), P4-HK13 (5′-AGATTATCATTGGC GGAAGCG-3′; SEQ ID NO:55), Erm-19 (5′-[…]-3′; SEQ ID NO:56), and Erm-20 (5′-[…] TAGAAT-3′; SEQ ID NO:57).
To determine if the peptide analogs had any impact on the development of genetic competence, S. mutans UA159 wild-type cells were assayed for genetic transformation. Overnight cultures of S. mutans UA159 were diluted (1:20) with prewarmed THYE broth and incubated at 37° C. in air with 5% CO2 until an optical density (OD) of approximately 0.1 at 600 nm was reached. The culture was then divided into six aliquots containing 1 μg/ml of plasmid pDL289 and different concentrations (0, 0.1, 0.5, 2, and 5 μg per ml) of peptide analogs. […] Total recipient cells were counted by spreading serial dilutions on THYE agar plates without antibiotic. Transformation efficiency was expressed as the percentage of kanamycin resistant transformants over the total number of recipient cells.

[2] = system: S. mutans wild-type UA159; experiment: S. mutans acid resistance assay (growth in THYE at pH 7.5 and pH 5.5); format: cell-based, Streptococcus mutans; details: 5 μg/ml of peptide analog; for Growth (pH 7.5): THYE pH 7.5; for Acid resistance (pH 5.5): growth in THYE pH 5.5
Procedure: The effect of peptides on acid tolerance was evaluated by assessment of growth in THYE at pH 7.5 and pH 5.5. Overnight S. mutans wild-type UA159 cells were diluted (1:20) with prewarmed THYE broth and incubated at 37° C. in air with 5% CO2 until an OD600 of approximately 0.4 was reached. A 20-fold dilution was made into 400 μl of either THYE pH 7.5 or THYE pH 5.5 broth containing different concentrations (0, 0.1, 0.5, 2, and 5 μg per ml) of peptide analogs and added in the individual wells of a 100-well Bioscreen C plate in triplicate. Wells without cells were used as blank controls. A Bioscreen microbiology reader (Labsystems, Helsinki, Finland) was employed to continuously grow cells and measure cell growth for 16 h at 37° C. Measurements were taken every 20 min with shaking to prevent cell aggregation.

[3] = system: S. mutans wild-type UA159; experiment: S. mutans biofilms formed on polystyrene microtiter plates (b), SDM-glucose, safranin (first study); format: cell-based, Streptococcus mutans; details: 5 μg/ml of peptide analog; ↓ = reduced biomass compared to biofilm grown in presence of wild-type CSP
Procedure: Biofilms were developed in 96-well polystyrene microtiter plates. […] Wells without cells were used as blank controls. […] After the incubation, the planktonic cells were carefully removed and the plates were air dried overnight. The plates were then stained with 0.01% (wt/vol) safranin for 10 min, rinsed with sterile distilled water and air dried. Biofilms were quantified by measuring the absorbance of stained biofilms at 490 nm with a microplate reader (model 3550; Bio-Rad Laboratories, Richmond, Calif.).

[4] = system: S. mutans comC deficient cells; experiment: Acid resistance tolerance of S. mutans comC deficient cells with added synthetic CSP (FIG. 12); format: cell-based, Streptococcus mutans; details: synthetic CSP added to culture of comC mutant; compared to parent strain NG8
Procedure: The ability of CSP [SEQ ID NO:11] to promote acid resistance tolerance is determined by measuring the cell survival rate of S. mutans when exposed to acidic pH. In one example, S. mutans are first grown in batch culture to assay acid tolerance response in ‘standard’ log- and stationary-phase cells by using a modification of methods described previously by Svensäter et al. Oral Microbiol. Immunol., 12:266-73. Mid-log-phase cells are obtained by transferring one volume of overnight culture into nine volumes (1:10) of fresh TYG medium (pH 7.5) and incubated at 37° C. with 5% CO2 for 2 hours. These cells are then collected by centrifugation at 8,000×g for 10 min and resuspended in 2 ml of fresh TYG (pH 5.5) at various cell densities as determined by O.D600. The cells are induced for acid adaptation by incubation at pH 5.5 for 2 h at 37° C. with 5% CO2. The adapted log-phase cells are then exposed to the killing pH. Killing pH is pre-determined by incubating unadapted, mid-log phase cells in TYG medium at pH values from 6.0 to 2.0. Stationary-phase cells are prepared by re-suspending late-log phase cells in TY medium (tryptone-yeast extract) without glucose. […] Adaptation of both log- and stationary-phase cells to acidic pH is determined by measuring the ability of bacterial cells to survive a killing pH for 3 h. […]

[5] = system: S. mutans comC null mutant; details: exogenous addition of synthetic CSP; Li et al., 2002; cited from earlier work

| Substance | Effect of H1 on genetic competence in comD null mutant [1] | Growth (pH 7.5) [2] | Acid resistance (pH 5.5) [2] | Bioflim formation (SDM-glucose) [3] | Survival of low pH challenge by comC mutant [4] | Biofilm phenotype of comC defective mutant [5] |
| --- | --- | --- | --- | --- | --- | --- |
| H1: S. mutans CSP analog, 4th residue removed from C′ (SGSLSTFFRLFNVSFTQALGK; D2 peptide analog) | ComD-dependent process | no effect | significant decrease in cell growth | no effect | – | – |
| SGSLSTFFRLFNRSFTQALGK (MKKTLSLKNDFKEIKTDELEIIIGGSGSLSTFFRLFNRSFTQALGK; Streptococcus mutans) [CSP, reference compound] | – | ↓growth | growth | no effect | restored the ability of the mutant to survive a low pH challenge | restores the wild-type phenotype |
